Here are results for 3 molecules from patent US20210327553A1, “PREDICTION OF ADVERSE DRUG REACTION BASED ON MACHINE-LEARNED MODELS USING PROTEIN FUNCTION SCORES AND CLINICAL FACTORS” (Cipherome, Inc., priority 2020, published 2021).

The conditions of series [1]: prolonged use in patients with liver or kidney problems or immunosuppressed; cited from earlier work.
The test system of series [2] is COVID-19. The note with it: limited in-vitro and anecdotal data; cited from earlier work.
The nature of series [3]: Retrospective UK Biobank analysis of warfarin ADR records within first 90 days of administration. Type of series: in vivo. The note with it: n=612, ADR record (ICD9/10) within first 90 days of warfarin administration. As to the method:
A retrospective analysis was conducted using genomic and phenotypic data from the UK Biobank (FIG. 2). […] Most common warfarin ADRs listed in the health registry data included non-traumatic, hemorrhage, gastrointestinal bleeding, and “ADRs due to anticoagulant use”.

Regarding `CCN(CC)CCCC(C)Nc1ccnc2cc(Cl)ccc12` (centres unmarked) [chloroquine], in series [1], the cardiotoxicity result is “cadiotoxicity (prolonged QT syndrome of irregular heartbeats)”. Also, the “in-vitro activity against COVID-19” value in series [2] is reported as “have in-vitro activity against COVID-19”.
Regarding `CCN(CCO)CCCC(C)Nc1ccnc2cc(Cl)ccc12` (centres unmarked) [hydroxychloroquine], in series [1], the cardiotoxicity entry is given as “cadiotoxicity (prolonged QT syndrome of irregular heartbeats)”. In addition, the “in-vitro activity against COVID-19” value in series [2] is reported as “have in-vitro activity against COVID-19”.
In turn, `CC(=O)CC(c1ccccc1)c1c(O)c2ccccc2oc1=O` (centres unmarked) [warfarin] showed an ADR prevalence in series [3] of 4.41%.
